The values below come from patent US4753953A, “Pyridonecarboxylic acid derivatives and antibacterial pharmaceutical compositions thereof” (priority 1985, dated 1988).

Experiment [1] deals with Bacillus subtilis PCI 219. Description: MIC, in vitro antibacterial activity (standard strains). The conditions noted are these: Bacillus subtilis, PCI219. Format: cell-based.
Experiment [2] relates to E. coli ML 4707. The experiment is described as above. It is filed as cell-based, Escherichia coli. The conditions noted are these: Escherichia coli, ML4707, 10^6 cells/ml; Gram -; Table 1.
The subject of experiment [3] is Proteus vulgaris IFO 3167. The experiment is described as above. It is filed as cell-based. The conditions noted are these: Proteus vulgaris, IFO3167.
The subject of experiment [4] is Morganella morganii IID 602. Described as above. The conditions noted are these: Morganella morganii, IID602; 10^6 cells/ml; Gram -; read-out: MIC. It is filed as cell-based.
A further experiment deals with K. pneumoniae 1-220S. The description is as above. Format: cell-based, Klebsiella pneumoniae. Conditions: Klebsiella pneumoniae, 1220S.
The subject of experiment [5] is Citrobacter freundii IID 976. The experiment is described as above. It is filed as cell-based. The conditions noted are these: Citrobacter freundii, IID976.
A further experiment relates to Shigella sonnei IID 969. Described as above. Format: cell-based. The conditions noted are these: Shigella sonnei, IID969; 10^6 cells/ml; Gram -; read-out: MIC. As to the method:
Minimal inhibitory concentrations (MICs) were determined in accordance with the method recommended by Japan Society of Chemotherapy.

The subject of experiment [6] is Pseudomonas aeruginosa V-1. The description is as above. It is filed as cell-based. The conditions noted are these: Pseudomonas aeruginosa, V1.
Experiment [7] concerns Bacteroides fragilis GM 7000. Described as above. The conditions noted are these: Bacteroides fragilis, GM7000. It is filed as cell-based.
For the next experiment, the system named is B. fragilis 0558. The description is as above. It is filed as cell-based, Bacteroides fragilis. Conditions: Bacteroides fragilis, 0558.
The test system of a further experiment is B. fragilis 25285. Described as above. It is filed as cell-based, Bacteroides fragilis. The conditions noted are these: Bacteroides fragilis, 25285.
Another experiment has as its system B. distasonis 8503. Described as above. Format: cell-based. Conditions: Parabacteroides distasonis, 8503.
In another experiment the test system is C. ramosum. The description is as above. It is filed as cell-based. Conditions: Thomasclavelia ramosa.
Another experiment relates to Pst. micros UPI 5464-1. Described as above. Format: cell-based. Conditions: Parvimonas micra, UPI54641; 10^6 cells/ml; Gram +; read-out: MIC.
In experiment [8] the test system is Veillonella parvula KYA 10790. The experiment is described as above. Conditions: Veillonella parvula, KYA10790; 10^6 cells/ml; Gram -; read-out: MIC. Format: cell-based.
The test system of experiment [9] is E. coli ML 4707. The experiment in a line: Therapeutic efficacy against systemic infections in mice, E. coli ML 4707. Conditions: Escherichia coli, ML4707, in Mus musculus, po, 1 h.
In another experiment the test system is MR S. aureus KYB 623. The experiment in a line: Therapeutic efficacy against systemic infections in mice, MR S. aureus KYB 623. Conditions: Staphylococcus aureus, in Mus musculus, po, 1 h.
The next experiment concerns S. pneumoniae S-4288. Description: Therapeutic efficacy against systemic infections in mice, S. pneumoniae S-4288. The conditions noted are these: Streptococcus pneumoniae, S4288, in Mus musculus, po, 1 h.

Each structure is given as a SMILES string. Converted amounts (≈) assume the structure as drawn.

Turning to `O=C(O)c1cn(C2CC2)c2cc(N3CCNCC3)c(F)cc2c1=O` [CPFX, ciprofloxacin, reference compound], the MIC (commonly the lowest concentration found to suppress growth) in experiment [1] is 0.05 µg/mL (≈ 0.151 µM); in the experiment on E. coli ML 4707 [2] it was ≤ 0.0063 µg/mL; in experiment [3], ≤ 0.0063 µg/mL; in [4], 0.05 µg/mL (≈ 0.151 µM); with K. pneumoniae 1-220S it was 0.05 µg/mL (≈ 0.151 µM); in experiment [5], ≤ 0.0063 µg/mL. For the same compound, the MIC in the experiment on Shigella sonnei IID 969 was ≤ 0.0063 µg/mL; in experiment [6], 0.2 µg/mL (≈ 0.604 µM); in [7], 3.13 µg/mL (≈ 9.45 µM); with B. fragilis 0558, 3.13 µg/mL (≈ 9.45 µM); with B. fragilis 25285, 6.25 µg/mL (≈ 18.9 µM); in the experiment with B. distasonis 8503, 6.25 µg/mL (≈ 18.9 µM). For the same compound, the MIC was determined as 6.25 µg/mL (≈ 18.9 µM) with C. ramosum, 0.2 µg/mL (≈ 0.604 µM) in the experiment on Pst. micros UPI 5464-1 and 0.2 µg/mL (≈ 0.604 µM) in experiment [8]. The ED50 – broadly, the dose at which the effect has come halfway, by size or by number of responders – is 1.4 mg/kg in the experiment with E. coli ML 4707 [9], 37 mg/kg in the experiment with MR S. aureus KYB 623 and > 100 mg/kg in the experiment on S. pneumoniae S-4288.
